Measured values: paper PMC6562610, “Inhibition of Hedgehog Signaling in Fibroblasts, Pancreatic, and Lung Tumor Cells by Oxy186, an Oxysterol Analogue with Drug-Like Properties” (Cells, 2019)
pIC50: −log10 of the molar value. Entries after “also recorded” stand apart in the source; their conditions may differ. Where two headings read alike, the source gives them in different places.

Tests used:
[1] = test system: Gli1 expression in A549 cells; assay: Inhibition of Gli1 expression in A549 cells, Q-RT-PCR; format: cell-based, human; conditions: 10 µM, 72 h
Text: (§1) NIH3T3-E1 fibroblasts were obtained from ATCC (Manassas, VA) and cultured, as previously described. CAPAN-1 and PANC-1 human pancreatic cancer cells were obtained from ATCC and cultured in Dulbecco’s Modified Eagle Medium (DMEM) containing 10% heat-inactivated fetal bovine serum (FBS) (Hyclone Laboratories, Logan, UT, USA) and antibiotics, as previously described. The human lung cancer cell lines A549 and H2030 were obtained from ATCC and cultured in RPMI-1640 containing 10% FBS. The human hepatoma cell line HepG2 was obtained from ATCC and cultured in DMEM containing 10% FBS. Mouse embryonic fibroblasts (MEFs) from suppressor of fused (Sufu) null mice (Sufu^−/−) were provided by Dr. Philip Beachy of Stanford University and cultured in DMEM containing 10% FBS. Gant61, SB431542 and vismodegib (GDC0449) were obtained from Cayman Chemical, HPI-1 was obtained from Abcam. For experiments, cells were treated in a medium containing 5% FBS.
(§2) Total RNA was extracted with the RNeasy Plus Mini Kit from Qiagen, according to the manufacturer’s instructions. One microgram of RNA was reverse-transcribed using an iScript Reverse Transcription Supermix from Bio-Rad, to make single-stranded cDNA. The cDNAs were then mixed with Qi SYBR Green Supermix (Bio-Rad, Hercules, CA, USA) for quantitative RT-PCR assay using a Bio-Rad I-cycler IQ quantitative thermocycler. All PCR samples were prepared in triplicate wells in a 96-well plate. […] Fold changes in gene expression were calculated using the ΔΔCt method. […]
(§3) Figure 4 Inhibition of Gli and Shh expression in (a) PDAC (PANC-1) and (b,c) human lung cancer cells (A549 and H2030, respectively) by Oxy186. Cells were treated with the compounds as indicated in DMEM or RPMI 1640 containing 5% FBS for (a) 48 or (b,c) 72 hours, then RNA was extracted and analyzed by Q-RT-PCR for the expression of Gli1 and normalized to GAPDH expression. (d) CAPAN-1 cells were treated with the compounds, as indicated, in DMEM containing 5% FBS for 72 h, then RNA was extracted and analyzed by Q-RT-PCR for the expression of Shh and normalized to GAPDH expression. […]

[2] = test system: Shh expression in CAPAN-1 cells; assay: Inhibition of Shh expression in CAPAN-1 cells, Q-RT-PCR; format: cell-based, human; conditions: 72 h
Text: as §1, §2, §3

A549 cells = assay: Cell counting assay, A549; format: cell-based, human; conditions: 96 h
Method: (§4) A549 and H2030 cells cultured in 12-well plates at 20% confluence were treated with Oxy186, HPI-1, Gant61, or GDC0449 for 96 hours and then trypsinized and suspended in fresh medium. An aliquot of cell suspension was applied to a hemocytometer and counted under a microscope.
(§5) Figure 6 Inhibition of human pancreatic and lung cancer cell proliferation by Oxy186. (a,c) A549, (b) and (d) H2030, (e) PANC-1, and (f) CAPAN-1 cells were treated with the compounds as indicated in RPMI 1640 (a–d) or DMEM (e,f) containing 5% FBS for 96 h and then were trypsinized and counted. Data from a representative experiment are reported as the mean of triplicate determinations ± SD (* p < 0.05 vs. Control; ** p < 0.01 vs. control).

H2030 cells = assay: Cell counting assay, H2030; format: cell-based, human
Method: as §4, §5

[3] = Pharmacokinetic study in mice, single oral dose; format: in vivo, balb/c mice; conditions: for Cmax: read-out: maximum serum concentration (Cmax)
Method: In an initial assessment of the drug-like properties of Oxy186, we performed a pharmacokinetic (PK) study in mice. Oxy186, formulated in 4% ethanol, 15% DMSO, and 81% corn oil, was administered to balb/c mice by oral gavage as a single dose of 50 mg/kg.
Figure 8 Drug-like properties of Oxy186. (a) A single dose of Oxy186 at 50 mg/kg, formulated in 4% ethanol/ 15% DMSO/ 81% corn oil, was administered to balb/c mice by oral gavage. Plasma samples were taken at 10 min, 30 min, 1, 2, 4, 6, 8, and 24 h, followed by LC/MS analysis of the plasma. (b) Evolution of Oxy186 from parent compound Oxy16 and their drug-like properties.

[4] = mouse, plasma, balb/c mice, 50 mg/kg, oral gavage, single dose

In the case of `C[C@]12CC[C@H](O)C[C@@H]1CC[C@@H]1[C@@H]2CC[C@@]2(C)[C@H]1CC[C@@H]2[C@](C)(O)CCc1ccc(F)cc1` [Oxy186, (3S,5S,8R,9S,10S,13S,14S,17S)-17-((R)-4-(4-fluorophenyl)-2-hydroxybutan-2-yl)-10,13-dimethylhexadecahydro-1H-cyclopenta[a]phenanthren-3-ol], the “Inhibition of expression of Gli1” value [1] was “significantly inhibited”, the “Inhibition of Shh expression” value [2] was “robustly inhibited; also recorded: significant inhibition” and the “Inhibition of cell proliferation” value (A549 cells; 10 µM) was “significantly inhibited”. For the same compound, the pIC50 (A549 cells; Homo sapiens, read-out: IC50 for inhibition of cell proliferation) was 5.30, the Anti-proliferative effect (H2030 cells; 96 h) was “significant anti-proliferative effect” and the pIC50 (H2030 cells; Homo sapiens, NCI-H2030, 96 h, read-out: IC50 for inhibition of cell proliferation) was 5.51. The “In vivo availability / stability (Figure 8b summary)” value ([3]; Figure 8b drug-like properties summary) was “Orally available in mice”, the Tolerability ([3]; balb/c mice, 50 mg/kg, oral gavage, single dose) was “well tolerated; also recorded: no overt signs of toxicity” and the Tmax [3, 4] was 2 h. For the same compound, the AUC ([3]; mouse, plasma, balb/c mice, 50 mg/kg, oral gavage, single dose, read-out: area under the curve (AUC)) was 10500 ng·h/mL, the Cmax [3, 4] was 1490 ng/mL and the half-life ([3]; mouse, plasma, balb/c mice, 50 mg/kg, oral gavage, single dose, read-out: oral half-life (T1/2) (converted)) was 4.5 h. The AUC ([3]; mouse, plasma, balb/c mice, 50 mg/kg, oral gavage, converted from ng/mL, read-out: area under the curve (AUC), molar) was 23.7 µM·h and the Cmax ([3]; mouse, plasma, balb/c mice, 50 mg/kg, oral gavage, converted with MW = 442.32) was 3.4 µM.
